Assays:
Caco-2 cell monolayers = conditions: cited from earlier work
From the text: (§1) In addition, transport through Caco-2 cell monolayers was ...

[1] = cited from earlier work
From the text: as §1

[2] = tested on: angiotensin-converting-enzyme; parameters: method as in PMID 8201050; conditions: cited from earlier work
From the text: as §1

TAS1R3 = experiment: RT-qPCR gene expression of TAS1R3 in HGT-1 cells; format: cell-based, human
Method: (§2) For mRNA expression analysis, 800,000 cells were seeded in a T25 cell culture flask (25 cm^2) 1 day before the experiment. After incubation with 17.5 μM […], 0.03 μM YFYPEL, or 0.4 μM […] for 15, 30, 60, and 120 min, RNA was isolated using the peqGOLD RNA Kit (VWR Peqlab, USA) following the manufacturer’s protocol. Determination of RNA concentration (A260/A280 between 2.03 and 2.09) was performed on a NanoDrop One^c (Thermo Fisher Scientific Inc., USA). RNA integrity number (RIN 9.9–10.0, version 2.6, assay class Eukaryote Total RNA Nano) was analyzed using a 2100 Bioanalyzer (Agilent Technologies, USA). Removal of gDNA and synthesis of cDNA were performed using the iScript gDNA Clear cDNA Synthesis Kit (BioRad, Feldkirchen, Germany) following the manufacturer’s protocol. Real-time-qPCR (RT-qPCR) was performed with 50 ng cDNA amplified with SsoAdvanced Universal SYBR Green Supermix (Bio-Rad Laboratories, Inc., USA). The sequences of the forward and reverse primers of the 25 TAS2Rs were taken from Liszt et al.([13]) (Supporting Information Table-SI 3). Verified primers for the TAS1Rs (TAS1R1: qHsaCID0013443; TAS1R2: qHsaCID0016106; TAS1R3: qHsaCED0002321) and for MAPK1 (qHsaCEP0050000) were obtained from Bio-Rad Laboratories. PPIA[37] and GAPDH[38] were used as reference genes. The effects of the peptides on gene expression were analyzed in comparison to untreated control cells.

[3] = parameters: method as in PMID 1427989; conditions: cited from earlier work
From the text: as §1

TAS2R40 = experiment: RT-qPCR gene expression of TAS2R40 in HGT-1 cells; format: cell-based, human; conditions: VAPFPEVF 17.5 µM, YFYPEL 0.03 µM, YQEPVLGPVRGPFPIIV 0.4 µM, normalized to PPIA and GAPDH and untreated cells, mean, n = 3–5
Method: as §2

TAS2R3 = experiment: RT-qPCR gene expression of TAS2R3 in HGT-1 cells; format: cell-based, human; conditions: VAPFPEVF 17.5 µM, YFYPEL 0.03 µM, YQEPVLGPVRGPFPIIV 0.4 µM, normalized to PPIA and GAPDH and untreated cells, mean, n = 3–5
Method: as §2

MUC5AC = conditions: human intestinal cells; cited from earlier work
From the text: as §1

[4] = 15/30/60/120 min, VAPFPEVF 17.5 µM, YQEPVLGPVRGPFPIIV 0.4 µM, n = 3

In the case of “YQEPVLGPVRGPFPIIV [bitter casein peptide βA1/A2-CN193–209]”, the “transport through Caco-2 cell monolayers” value (Caco-2 cell monolayers) is listed as “transport through Caco-2 cell monolayers was observed”, the antimicrobial ability [1] is listed as “antimicrobial” and the angiotensin-converting-enzyme inhibitory activity [2] is listed as “angiotensin-converting-enzyme inhibitory activity”. The “change in expression of TAS1R3” value (TAS1R3; [4]) was “no significant effect”, the immunomodulatory ability [3] was “immunomodulatory abilities” and the “change in gene expression of TAS2R40” value (TAS2R40; incubation 15 min) was 0.92 fold change. The “change in gene expression of TAS2R40” value (TAS2R40; incubation 30 min) was 1.78 fold change, the “change in gene expression of TAS2R40” value (TAS2R40; incubation 60 min) was 0.96 fold change and the “change in gene expression of TAS2R40” value (TAS2R40; incubation 120 min) was 0.86 fold change. For the same substance, the “change in gene expression of TAS2R3” value (TAS2R3; incubation 15 min) was 1.03 fold change, the “change in gene expression of TAS2R3” value (TAS2R3; incubation 30 min) was 1.89 fold change and the “change in gene expression of TAS2R3” value (TAS2R3; incubation 60 min) was 1.61 fold change. For the same substance, the “change in gene expression of TAS2R3” value (TAS2R3; incubation 120 min) was 1.40 fold change.
For “YFYPEL [bitter casein peptide αS1-CN144–149]”, the “effect on expression of MUC5AC” value (MUC5AC) is given as “increase the expression of MUC5AC”, the “change in expression of TAS1R3” value (TAS1R3; 0.03 µM YFYPEL, 15 min, p < 0.0001) is given as “significant increase” and the “change in gene expression of TAS2R40” value (TAS2R40; incubation 15 min) is given as 1.90 fold change. For the same substance, the “change in gene expression of TAS2R40” value (TAS2R40; incubation 30 min) was 0.82 fold change, the “change in gene expression of TAS2R40” value (TAS2R40; incubation 60 min) was 0.59 fold change and the “change in gene expression of TAS2R40” value (TAS2R40; incubation 120 min) was 0.75 fold change. The “change in gene expression of TAS2R3” value (TAS2R3; incubation 15 min) was 1.54 fold change, the “change in gene expression of TAS2R3” value (TAS2R3; incubation 30 min) was 1.08 fold change and the “change in gene expression of TAS2R3” value (TAS2R3; incubation 60 min) was 1.19 fold change. For the same substance, the “change in gene expression of TAS2R3” value (TAS2R3; incubation 120 min) was 1.34 fold change.
For “VAPFPEVF [bitter casein peptide αS1-CN25–32]”, the “change in expression of TAS1R3” value (TAS1R3; [4]) was “no significant effect”, the “change in gene expression of TAS2R40” value (TAS2R40; incubation 15 min) was 0.81 fold change and the “change in gene expression of TAS2R40” value (TAS2R40; incubation 30 min) was 1.54 fold change. For the same substance, the “change in gene expression of TAS2R40” value (TAS2R40; incubation 60 min) was 0.88 fold change, the “change in gene expression of TAS2R40” value (TAS2R40; incubation 120 min) was 1.42 fold change and the “change in gene expression of TAS2R3” value (TAS2R3; incubation 15 min) was 0.70 fold change. For the same substance, the “change in gene expression of TAS2R3” value (TAS2R3; incubation 30 min) was 1.56 fold change, the “change in gene expression of TAS2R3” value (TAS2R3; incubation 60 min) was 1.06 fold change and the “change in gene expression of TAS2R3” value (TAS2R3; incubation 120 min) was 1.72 fold change.
